Assay results from patent US10738007B2, “Amide compounds as kinase inhibitors, compositions and methods of treatment” (TRANSLATIONAL DRUG DEVELOPMENT, LLC, priority 2016, dated 2020).
Read-outs that look alike come from different tables or passages of the source.

Assays:
ROCK1 = ROCK1 (Homo sapiens (Human), UniProt Q13464); assay: ROCK1 kinase inhibition assay (peptide phosphorylation, LABCHIP 3000); format: biochemical; conditions: 5 μM ATP, 3 nM ROCK1, 3 hours at 25° C.
Method: (§1) The peptide is phosphorylated by the protein kinase ROCK1 or ROCK2. The ROCK1 or ROCK2 enzyme, substrate, and cofactors (ATP and Mg^2+) are combined in a well of a microtiter plate and incubated for 3 hours at 25° C. in the presence or absence of an inhibitor compound. At the end of the incubation, the reaction is quenched by the addition of an EDTA-containing buffer. The substrate and product are separated and quantified electrophoretically using the microfluidic-based LABCHIP® 3000 Drug Discovery System from Caliper Life Sciences (Hopkinton, Mass.).
(§2) The components of the assay mixture are:
10 μM Sodium Orthovanadate
10 LM Beta-Glycerophosphate
(§3) 5 μM ATP (for ROCK1) or 7 μM ATP (for ROCK2)
3 nM ROCK1 or 2.5 nM ROCK2 enzyme
(§4) Substrate and product peptides present in each sample are separated electrophoretically using the LABCHIP® 3000 capillary electrophoresis instrument. […] Change in the relative fluorescence intensity of the substrate and product peaks is the parameter measured reflecting enzyme activity. Capillary electrophoregramms (RDA acquisition files) are analyzed using HTS Well Analyzer software (Caliper Life Sciences, Hopkinton, Mass.). The kinase activity in each sample is determined as the product to sum ratio (PSR): P/(S+P), where P is the peak height of the product peptide and S is the peak height of the substrate peptide. For each compound, enzyme activity is measured at various concentrations (12 concentrations of compound spaced by 3× dilution intervals). Negative control samples (0%-inhibition in the absence of inhibitor) and positive control samples (100%-inhibition in the presence of 20 mM EDTA) are assembled in replicates of four and are used to calculate %-inhibition values for each compound at each concentration. Percent inhibition (Pinh) is determined using the following equation: Pinh=(PSRO %−PSRinh)/(PSRO %−PSR100%)*100
(§5) where PSRinh is the product sum ratio in the presence of inhibitor, PSRO % is the average product sum ratio in the absence of inhibitor, and PSR100% is the average product sum ratio in 100%-inhibition control samples. The IC50 values of inhibitors are determined by fitting the inhibition curves (Pinh versus inhibitor concentration) by the 4-parameter sigmoidal dose-response model using XLfit 4 software (IBDS).

ROCK2 = ROCK2 (Homo sapiens (Human), UniProt O75116); assay: ROCK2 kinase inhibition assay (peptide phosphorylation, LABCHIP 3000); format: biochemical; conditions: 7 μM ATP, 2.5 nM ROCK2, 3 hours at 25° C.
ROCK2, sequence (O75116 whole entry, species assumed): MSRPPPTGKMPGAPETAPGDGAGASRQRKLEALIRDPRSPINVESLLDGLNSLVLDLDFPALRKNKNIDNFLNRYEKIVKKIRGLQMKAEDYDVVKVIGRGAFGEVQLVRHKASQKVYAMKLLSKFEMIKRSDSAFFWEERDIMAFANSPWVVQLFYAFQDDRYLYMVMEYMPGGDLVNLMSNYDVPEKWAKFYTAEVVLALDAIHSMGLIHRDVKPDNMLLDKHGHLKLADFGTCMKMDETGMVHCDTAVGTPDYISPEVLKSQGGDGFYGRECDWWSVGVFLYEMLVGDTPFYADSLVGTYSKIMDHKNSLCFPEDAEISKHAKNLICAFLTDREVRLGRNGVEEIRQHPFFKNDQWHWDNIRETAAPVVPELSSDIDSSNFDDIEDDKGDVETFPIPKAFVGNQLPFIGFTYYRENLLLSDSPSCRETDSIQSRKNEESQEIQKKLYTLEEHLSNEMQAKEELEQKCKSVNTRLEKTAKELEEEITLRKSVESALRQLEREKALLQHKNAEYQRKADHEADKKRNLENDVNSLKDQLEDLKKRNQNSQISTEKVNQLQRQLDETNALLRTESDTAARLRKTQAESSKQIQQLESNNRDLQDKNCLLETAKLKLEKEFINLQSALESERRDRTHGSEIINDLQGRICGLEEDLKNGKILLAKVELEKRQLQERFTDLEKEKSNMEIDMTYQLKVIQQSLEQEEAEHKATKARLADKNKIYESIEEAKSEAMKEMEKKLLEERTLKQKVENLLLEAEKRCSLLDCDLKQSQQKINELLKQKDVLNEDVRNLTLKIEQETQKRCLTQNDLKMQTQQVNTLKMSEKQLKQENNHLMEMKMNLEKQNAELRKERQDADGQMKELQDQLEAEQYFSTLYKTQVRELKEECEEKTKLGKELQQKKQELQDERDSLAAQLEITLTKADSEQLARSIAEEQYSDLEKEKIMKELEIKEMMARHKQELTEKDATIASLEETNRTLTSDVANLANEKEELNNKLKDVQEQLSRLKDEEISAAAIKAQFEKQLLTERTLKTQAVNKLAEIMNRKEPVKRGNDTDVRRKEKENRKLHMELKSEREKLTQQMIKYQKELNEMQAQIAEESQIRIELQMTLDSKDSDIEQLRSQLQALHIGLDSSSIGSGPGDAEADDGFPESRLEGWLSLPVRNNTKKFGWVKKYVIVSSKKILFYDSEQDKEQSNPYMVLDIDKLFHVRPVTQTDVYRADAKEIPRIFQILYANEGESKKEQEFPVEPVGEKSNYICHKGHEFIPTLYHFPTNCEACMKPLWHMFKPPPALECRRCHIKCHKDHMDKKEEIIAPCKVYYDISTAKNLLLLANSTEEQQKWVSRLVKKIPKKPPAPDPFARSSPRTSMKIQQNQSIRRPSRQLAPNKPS
Method: as §1, §2
10 μM Sodium Orthovanadate
10 LM Beta-Glycerophosphate
as §3
3 nM ROCK1 or 2.5 nM ROCK2 enzyme
as §4, §5

K562 cell line = assay: Cell viability assay ([…]-GLO), K562; format: cell-based; conditions: Homo sapiens; K562 (does not express ITD-FLT3), 72 hours treatment
How it was run: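 Cells seeded 2.5×10^3-5×10^3/well, grown 24 h, then exposed to compounds for 72 h. Viability read as ATP luminescence (CellTiter-Glo-type) after 37° C incubation; % growth = test/vehicle ×100. IC50 from sigmoidal dose-response fit.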

MV411 cell line = assay: Cell viability assay ([…]-GLO), MV411; format: cell-based; conditions: for IC50: Homo sapiens, MV4-11, MV411 (ITD-FLT3+), 72 hours treatment; for FLT3-ITD+ Selectivity (K562/MV411): ratio K562/MV411
[1] = Pharmacokinetic activity in mice; format: in vivo; conditions: for AUC(0-t): read-out: AUC0-8
Method: Compounds were individually and accurately weighed out to produce a stock solution in Dimethyl-sulfoxide (DMSO) at a concentration of 2 mg/mL and stored at −20° C. From the stock solution, a working stock was prepared by diluting it in Methanol-Water 50:50 (v/v) at 20 μg/mL for calibration curve preparation and stored at 4° C. Standards used for quantitation and quality control samples (QCs) were prepared on the same day of sample processing using blank plasma obtained from non-treated mice. For each analyte, standards were prepared through serial dilutions of the working stock at concentrations of 0.1, 0.5, 1.0, 10, 50, 100, 500, and 1000 ng/mL; QCs were prepared at intermediate concentrations of 0.75, 7.5, 75, and 750 ng/mL. Plasma samples were stored at −80° C. until ready for analysis and then placed on ice for thawing. An aliquot of […] samples, standards, or QCs, were transferred into a 96-well extraction plate according to a pre-defined layout. An appropriate volume of Methanol-Formic Acid 99.9-0.1 containing internal standard (Verapamil at 25 ng/mL) was added to each well and the samples were extracted under vacuum. Eluent was then transferred into a LCMS plate for analysis using a suitable column for separation and MRM detection. Concentration of analytes was calculated based on the calibration curve and analyzed for pharmacokinetic parameters by using Non-compartmental analysis (NCA). Parameters such as Cmax, Tmax, half-life, AUC(0-last), AUC(0-∞), volume of distribution (Vss), and clearance (Cl/F) were reported.

ROCK1, sequence (Q13464 whole entry, species assumed): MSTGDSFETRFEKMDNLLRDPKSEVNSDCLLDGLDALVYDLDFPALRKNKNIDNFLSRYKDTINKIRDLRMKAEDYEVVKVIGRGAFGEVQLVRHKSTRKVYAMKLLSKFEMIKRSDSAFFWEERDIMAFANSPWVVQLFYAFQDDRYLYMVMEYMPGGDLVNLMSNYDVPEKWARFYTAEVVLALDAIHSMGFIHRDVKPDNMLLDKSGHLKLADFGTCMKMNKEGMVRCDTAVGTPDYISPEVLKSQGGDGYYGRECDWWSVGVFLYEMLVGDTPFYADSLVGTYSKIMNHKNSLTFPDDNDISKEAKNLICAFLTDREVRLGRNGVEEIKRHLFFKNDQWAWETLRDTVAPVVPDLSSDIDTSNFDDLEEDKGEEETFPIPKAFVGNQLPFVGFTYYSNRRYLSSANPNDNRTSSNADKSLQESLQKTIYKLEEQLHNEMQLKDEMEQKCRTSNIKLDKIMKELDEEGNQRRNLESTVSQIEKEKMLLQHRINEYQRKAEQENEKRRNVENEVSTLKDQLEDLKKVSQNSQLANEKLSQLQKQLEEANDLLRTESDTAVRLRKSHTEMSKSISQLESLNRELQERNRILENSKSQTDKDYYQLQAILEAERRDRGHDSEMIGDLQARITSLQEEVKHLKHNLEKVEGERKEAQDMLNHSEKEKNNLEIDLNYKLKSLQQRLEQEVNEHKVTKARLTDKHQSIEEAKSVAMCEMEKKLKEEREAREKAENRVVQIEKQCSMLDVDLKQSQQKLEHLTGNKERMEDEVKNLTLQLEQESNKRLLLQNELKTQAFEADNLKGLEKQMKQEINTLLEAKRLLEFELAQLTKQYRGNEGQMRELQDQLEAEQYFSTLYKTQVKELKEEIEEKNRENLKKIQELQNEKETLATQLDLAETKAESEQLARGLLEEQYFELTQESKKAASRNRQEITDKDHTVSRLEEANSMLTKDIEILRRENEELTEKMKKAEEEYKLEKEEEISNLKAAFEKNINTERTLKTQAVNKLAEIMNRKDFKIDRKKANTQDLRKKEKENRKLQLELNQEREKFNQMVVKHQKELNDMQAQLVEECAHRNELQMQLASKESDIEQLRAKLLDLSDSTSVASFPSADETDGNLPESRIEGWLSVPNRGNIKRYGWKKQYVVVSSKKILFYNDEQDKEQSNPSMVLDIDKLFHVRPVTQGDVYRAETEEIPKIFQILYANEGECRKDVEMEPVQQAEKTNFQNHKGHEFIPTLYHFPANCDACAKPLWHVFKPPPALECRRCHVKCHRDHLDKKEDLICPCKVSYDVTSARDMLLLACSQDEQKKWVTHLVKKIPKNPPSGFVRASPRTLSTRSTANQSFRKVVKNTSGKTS

## O=C(NC1CCCC1)c1cccc([C@@H](CO)NC(=O)c2ccc(-c3ccncc3)cc2)c1 [Compound 10]
ROCK1
  IC50: 4.8 nM
ROCK2
  IC50: 0.87 nM
K562 cell line
  IC50: 17000 nM
MV411 cell line
  IC50: 170 nM
  FLT3-ITD+ Selectivity (K562/MV411): 100
[1]; IV - 1 mg/kg
  AUC % Extrap: 0.39%
  Cl/F obs: 2.83 mL/min/kg
  R-sq: 0.90
[1]; PO - 5 mg/kg
  AUC % Extrap: 0.09%
  R-sq: 0.93
[1]; mouse, plasma, IV - 1 mg/kg
  AUC(0-inf): 5370 ng·h/mL
  C0: 7000 ng/mL
  Cmax: 4180 ng/mL
  Tmax: 0.25 h
  half-life: 3.86 h
  AUC(0-t): 5350 ng·h/mL
[1]; mouse, plasma, IV - 1 mg/kg, read-out: Vss
  Vd: 0.32 L/kg
[1]; mouse, plasma, PO - 5 mg/kg
  AUC(0-inf): 51500 ng·h/mL
  CL/F: 1.5 mL/min/kg
  Cmax: 13100 ng/mL
  Tmax: 1 h
  half-life: 2.32 h
  AUC(0-t): 51400 ng·h/mL
[1]; mouse, plasma, PO - 5 mg/kg vs IV - 1 mg/kg
  bioavailability: > 100%
[1]; mouse, plasma, PO - 5 mg/kg, read-out: Vz/F obs
  Vd/F: 0.3 L/kg

## COCCOc1cc(-c2cn[nH]c2)ccc1C(=O)N[C@H](C)c1cccc(C(=O)NC2CCCC2)c1 [Compound 115]
ROCK1
  IC50: 3.91 nM
ROCK2
  IC50: 1.02 nM
K562 cell line
  IC50: 45000 nM
MV411 cell line
  IC50: 240 nM
  FLT3-ITD+ Selectivity (K562/MV411): 188

## CN1CCc2ccc(NC(=O)c3cccc(CNC(=O)c4ccc(-c5ccncc5)cc4)c3)cc2C1 [Compound B, reference compound]
ROCK1
  IC50: 9.9 nM
ROCK2
  IC50: 8.7 nM
K562 cell line
  IC50: 20000 nM
MV411 cell line
  IC50: 1300 nM
  FLT3-ITD+ Selectivity (K562/MV411): 15
